Where a name gives a salt, the structure may show the parent alone.
What was measured:
T-47D Tam1 [1] = experiment: drug sensitivity score (DSS) (DSS (dimensionless)); higher = more sensitive; extreme values may be limits of the assay; conditions: 4-OH-tamoxifen in medium 1 µM; 72 h
Experimental: (§1)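 FIMM FO2B library drugs were tested at 5 concentrations (10,000-fold range) for 72 h, with CellTiter-Glo viability normalised to DMSO and benzethonium chloride controls. The Drug Sensitivity Score (DSS) is computed from the fitted logistic dose-response curve (area-based; 0 = inactive). Resistant lines and the 'in 1µM tamoxifen' arms were tested in 1 µM 4-OH-tamoxifen.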

BT-474 Tam1 [2] = experiment: as above; conditions: 4-OH-tamoxifen in medium 1 µM; 72 h
Experimental: as §1

MCF-7 Tam1 [3] = experiment: as above; conditions: 4-OH-tamoxifen in medium 1 µM; 72 h
Experimental: as §1

ZR-75-1 Tam1 [4] = experiment: as above; conditions: 4-OH-tamoxifen in medium 1 µM; 72 h
Experimental: as §1

BT-474 Tam2 [5] = experiment: as above; conditions: 4-OH-tamoxifen in medium 1 µM; 72 h
Experimental: as §1

BT-474 [6] = experiment: as above; conditions: 72 h
Experimental: as §1

T-47D [7] = experiment: as above; conditions: 72 h
Experimental: as §1

T-47D Tam2 [8] = experiment: as above; conditions: 4-OH-tamoxifen in medium 1 µM; 72 h
Experimental: as §1

ZR-75-1 [9] = experiment: as above; conditions: 72 h
Experimental: as §1

MCF-7 [10] = experiment: as above; conditions: 72 h
Experimental: as §1

ZR-75-1 Tam2 [11] = experiment: as above; conditions: 4-OH-tamoxifen in medium 1 µM; 72 h
Experimental: as §1

ZR-75-1 Tam1 [12] = experiment: relative IC50 (midpoint of fitted logistic curve, plateau may be below 50% inhibition; CellTiter-Glo viability); higher = less potent; conditions: 4-OH-tamoxifen in medium 1 µM; 72 h
Experimental: (§2)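 FIMM FO2B library drugs were plated at 5 concentrations spanning a 10,000-fold range in 384-well plates. Cells were incubated for 72 h at 37 °C and viability was read by CellTiter-Glo, normalised to DMSO (0% inhibition) and 100 µM benzethonium chloride (100% inhibition). IC50 values come from logistic dose-response fits (Breeze pipeline). Tamoxifen-resistant lines and the 'in 1µM tamoxifen' parental arms were tested in medium with 1 µM 4-OH-tamoxifen.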

ZR-75-1 [13] = experiment: as above; conditions: 72 h
Experimental: as §2

MCF-7 [14] = experiment: as above; conditions: 72 h
Experimental: as §2

ZR-75-1 Tam2 [15] = experiment: as above; conditions: 4-OH-tamoxifen in medium 1 µM; 72 h
Experimental: as §2

BT-474 Tam2 [16] = experiment: as above; conditions: 4-OH-tamoxifen in medium 1 µM; 72 h
Experimental: as §2

BT-474 [17] = experiment: as above; conditions: 72 h
Experimental: as §2

T-47D [18] = experiment: as above; conditions: 72 h
Experimental: as §2

BT-474 Tam1 [19] = experiment: as above; conditions: 4-OH-tamoxifen in medium 1 µM; 72 h
Experimental: as §2

T-47D Tam1 [20] = experiment: viability inhibition at highest dose (% inhibition); higher = more growth inhibition; conditions: 4-OH-tamoxifen in medium 1 µM; 72 h
Summary of the method: (§3)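 After seeding into 384-well plates with library drugs at five concentrations spanning a 10 000-fold range, breast cancer cell lines and their resistant derivatives were incubated 72 h at 37 °C. Resistant lines received medium with 1 μM of the selecting drug. CellTiter-Glo signal was read on a PHERAstar and scaled to vehicle-only and positive controls. Drug sensitivity score, relative IC50 (the curve midpoint) and top-dose inhibition came from logistic fits run in the Breeze pipeline.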

BT-474 Tam1 [21] = experiment: as above; conditions: 4-OH-tamoxifen in medium 1 µM; 72 h
Summary of the method: as §3

MCF-7 Tam1 [22] = experiment: as above; conditions: 4-OH-tamoxifen in medium 1 µM; 72 h
Summary of the method: as §3

ZR-75-1 Tam1 [23] = experiment: as above; conditions: 4-OH-tamoxifen in medium 1 µM; 72 h
Summary of the method: as §3

BT-474 Tam2 [24] = experiment: as above; conditions: 4-OH-tamoxifen in medium 1 µM; 72 h
Summary of the method: as §3

BT-474 [25] = experiment: as above; conditions: 72 h
Summary of the method: as §3

T-47D [26] = experiment: as above; conditions: 72 h
Summary of the method: as §3

T-47D Tam2 [27] = experiment: as above; conditions: 4-OH-tamoxifen in medium 1 µM; 72 h
Summary of the method: as §3

ZR-75-1 [28] = experiment: as above; conditions: 72 h
Summary of the method: as §3

MCF-7 [29] = experiment: as above; conditions: 72 h
Summary of the method: as §3

ZR-75-1 Tam2 [30] = experiment: as above; conditions: 4-OH-tamoxifen in medium 1 µM; 72 h
Summary of the method: as §3

SMILES | drug sensitivity score (T-47D Tam1 [1]) | drug sensitivity score (BT-474 Tam1 [2]) | drug sensitivity score (MCF-7 Tam1 [3]) | drug sensitivity score (ZR-75-1 Tam1 [4]) | drug sensitivity score (BT-474 Tam2 [5]) | drug sensitivity score (BT-474 [6]; 4-OH-tamoxifen in medium 0 µM) | drug sensitivity score (BT-474 [6]; 4-OH-tamoxifen in medium 1 µM) | drug sensitivity score (T-47D [7]; 4-OH-tamoxifen in medium 0 µM) | drug sensitivity score (T-47D [7]; 4-OH-tamoxifen in medium 1 µM) | drug sensitivity score (T-47D Tam2 [8]) | drug sensitivity score (ZR-75-1 [9]; 4-OH-tamoxifen in medium 0 µM) | drug sensitivity score (ZR-75-1 [9]; 4-OH-tamoxifen in medium 1 µM) | drug sensitivity score (MCF-7 [10]; 4-OH-tamoxifen in medium 0 µM) | drug sensitivity score (MCF-7 [10]; 4-OH-tamoxifen in medium 1 µM) | drug sensitivity score (ZR-75-1 Tam2 [11]) | relative IC50 (ZR-75-1 Tam1 [12]) [nM] | relative IC50 (ZR-75-1 [13]; 4-OH-tamoxifen in medium 0 µM) [nM] | relative IC50 (MCF-7 [14]; 4-OH-tamoxifen in medium 0 µM) [nM] | relative IC50 (ZR-75-1 Tam2 [15]) [nM] | relative IC50 (T-47D [18]; 4-OH-tamoxifen in medium 1 µM) [nM] | further results
CO[C@H]1C[C@@H]2CC[C@@H](C)[C@@](O)(O2)C(=O)C(=O)N2CCCC[C@H]2C(=O)O[C@H]([C@H](C)C[C@@H]2CC[C@@H](OCCO)[C@H](OC)C2)CC(=O)[C@H](C)/C=C(\C)[C@@H](O)[C@@H](OC)C(=O)[C@H](C)C[C@H](C)/C=C/C=C/C=C/1C [Everolimus] | 4.62 | 1.16 | 0.336 | 4.45 | 2.18 | 7.06 | 0.135 | 5.82 | 2.41 | 3.34 | 8.05 | 4.22 | 11.6 | 8.24 | 9.02 | 3.52 | 1.27 | 1.04 | 1.23 |  | relative IC50 (ZR-75-1 [13]; 4-OH-tamoxifen in medium 1 µM): 3.47 nM; relative IC50 (MCF-7 [14]; 4-OH-tamoxifen in medium 1 µM): 0.952 nM
CC(=O)c1c(C)c2cnc(Nc3ccc(N4CCNCC4)cn3)nc2n(C2CCCC2)c1=O | 2.49 | 0 | 0.967 | 1.11 | 0 | 0 | 0 | 2.46 | 0 | 1.34 | 0 | 0.745 | 3.32 | 3.28 | 1.63 |  | > 10000 | 1160 |  | > 10000 | relative IC50 (BT-474 Tam2 [16]): > 10000 nM; relative IC50 (BT-474 [17]; 4-OH-tamoxifen in medium 1 µM): > 10000 nM
COc1ccc(C2=N[C@@H](c3ccc(Cl)cc3)[C@@H](c3ccc(Cl)cc3)N2C(=O)N2CCNC(=O)C2)c(OC(C)C)c1 [Nutlin-3] | 0.605 | 1.52 | 0.214 | 2.29 | 2.34 | 0 | 0.0005 | 0 | 0 | 0.429 | 1.96 | 2.65 | 2.64 | 3.36 | 4.17 | 1900 | 2790 |  | 1350 | > 10000 | relative IC50 (BT-474 Tam1 [19]): 3210 nM; relative IC50 (BT-474 [17]; 4-OH-tamoxifen in medium 0 µM): > 10000 nM; relative IC50 (T-47D [18]; 4-OH-tamoxifen in medium 0 µM): > 10000 nM; relative IC50 (MCF-7 [14]; 4-OH-tamoxifen in medium 1 µM): 2080 nM
c1ccc2c(CCNc3ccc(Nc4ccncc4)cc3)c[nH]c2c1 | 0.685 | 5.04 | 0.0212 | 0.823 | 1.44 | 0 | 3.42 | 0.192 | 0 | 0.542 | 0.0538 | 0.973 | 2.88 | 0.416 | 1.69 |  |  | 3720 | 2760 | > 10000 | relative IC50 (BT-474 Tam1 [19]): 3220 nM; relative IC50 (BT-474 Tam2 [16]): 3900 nM; relative IC50 (BT-474 [17]; 4-OH-tamoxifen in medium 0 µM): > 10000 nM; relative IC50 (BT-474 [17]; 4-OH-tamoxifen in medium 1 µM): 3980 nM
Cn1cnc2c(F)c(Nc3ccc(Br)cc3F)c(C(=O)NOCCO)cc21 [MEK-162 (ARRY-162)] | 3.1 | 0 | 0 | 0 | 0 | 0 | 1.07 | 0 | 0 | 0.511 | 0 | 0 | 0.0194 | 1.02 | 0 | > 1000 | > 1000 |  | > 1000 | > 1000 | relative IC50 (BT-474 Tam1 [19]): > 1000 nM; relative IC50 (BT-474 Tam2 [16]): > 1000 nM; relative IC50 (BT-474 [17]; 4-OH-tamoxifen in medium 0 µM): > 1000 nM; relative IC50 (T-47D [18]; 4-OH-tamoxifen in medium 0 µM): > 1000 nM; relative IC50 (ZR-75-1 [13]; 4-OH-tamoxifen in medium 1 µM): > 1000 nM
O=C(c1ccc(OCCN2CCCCC2)cc1)c1c(-c2ccc(O)cc2)sc2cc(O)ccc12 [Raloxifene  HCl] | 0.0352 | 1.74 | 0.681 | 0 | 1.14 | 0.75 | 2.42 | 0.0005 | 0 | 1.8 | 0.0043 | 0.0503 | 3.69 | 1.88 | 0 | > 10000 |  | 553 | > 10000 | > 10000 | relative IC50 (BT-474 Tam1 [19]): 4000 nM; relative IC50 (BT-474 Tam2 [16]): 4220 nM; relative IC50 (BT-474 [17]; 4-OH-tamoxifen in medium 1 µM): 3740 nM; relative IC50 (MCF-7 [14]; 4-OH-tamoxifen in medium 1 µM): 2650 nM
CCC1=C[C@@H]2CN(C1)Cc1c([nH]c3ccccc13)[C@@](C(=O)OC)(c1cc3c(cc1OC)N(C)[C@H]1[C@@](O)(C(=O)OC)[C@H](OC(C)=O)[C@]4(CC)C=CCN5CC[C@]31[C@@H]54)C2 [Vinorelbine (tartrate)] (drug 10000 nM) |  |  |  |  |  |  |  |  |  |  |  |  |  |  |  |  |  |  |  |  | viability inhibition at highest dose (T-47D Tam1 [20]): 59.6; viability inhibition at highest dose (BT-474 Tam1 [21]): 95.6; viability inhibition at highest dose (MCF-7 Tam1 [22]): 6.83; viability inhibition at highest dose (ZR-75-1 Tam1 [23]): 29.4; viability inhibition at highest dose (BT-474 Tam2 [24]): 93.8; viability inhibition at highest dose (BT-474 [25]; 4-OH-tamoxifen in medium 0 µM): 46.9; viability inhibition at highest dose (BT-474 [25]; 4-OH-tamoxifen in medium 1 µM): 94; viability inhibition at highest dose (T-47D [26]; 4-OH-tamoxifen in medium 0 µM): 6.97; viability inhibition at highest dose (T-47D [26]; 4-OH-tamoxifen in medium 1 µM): 31.1; viability inhibition at highest dose (T-47D Tam2 [27]): 63; viability inhibition at highest dose (ZR-75-1 [28]; 4-OH-tamoxifen in medium 0 µM): 26.2; viability inhibition at highest dose (ZR-75-1 [28]; 4-OH-tamoxifen in medium 1 µM): 36.3; viability inhibition at highest dose (MCF-7 [29]; 4-OH-tamoxifen in medium 0 µM): 49.1; viability inhibition at highest dose (MCF-7 [29]; 4-OH-tamoxifen in medium 1 µM): 55.8; viability inhibition at highest dose (ZR-75-1 Tam2 [30]): 29.9

Reference: the supplement of paper PMC4932681
